From patent publication US9988626B2, “Neurocalcin delta inhibitors and therapeutic and non-therapeutic uses thereof” (Universität Zu Köln, priority 2013, dated 2018)

What was measured:
[1] = tested on: zebrafish embryos; assay: Whole cell current clamp recordings of endplate potentials in zebrafish ventral fast muscle cells; type: in vivo
Experimental: Experiments were conducted with zebrafish embryos (wildtype (wt) contras, smn-, ncald-, and smn/ncald-morphants) 72 hours post fertilization. The animals were anesthetized with 0.02% tricaine (in saline; E10521, Sigma-Aldrich, Taufkirchen, Germany) for 1-2 min and then rinsed with saline. The saline contained (in mM): 134 NaCl, 2.9 KCl, 2.1 CaCl2, 1.2 MgCl2, 10 HEPES, 10 Glucose adjusted to pH 7.8 with NaOH. The fish were decapitated and pinned under saline in a Sylgard-coated (SYLG184, Dow Coming, Midland, Mich.) recording chamber (˜3 ml volume). The skin was peeled off using a sharp tungsten pin and fine forceps and the preparation was incubated in 3 M formamide (in saline; 6749.1, Carl Roth GmbH, Karlsruhe) for 2 min to prevent muscle contractions. After rinsing the preparation, the superficial layer of ventral slow muscle cells was removed by gently scratching with a fine tungsten pin to expose deeper lying fast skeletal muscle cells. Remaining superficial slow muscles in the segments of interest were removed with a low resistance pipette (˜2 MΩ). […] Muscle cells were visualized with a fixed-stage upright microscope (Zeiss Axio Examiner, Carl Zeiss Microscopy GmbH, Jena, Germany), using a 40× water immersion objective (W Plan-Apochromat, 40×; 1.0 numerical aperture; 2.5 mm working distance; Zeiss) with infrared-differential interference contrast (Dodt and Zieglgansberger 1990) and fluorescence optics. […]
Whole-cell patch clamp recordings in current-clamp mode were performed with an EPC10 patch-clamp amplifier (HEKA-Elektronik, Lambrecht, Germany) that was controlled by the program Patchmaster (version 2.53, HEKA-Elektronik) running under Windows. […] The calculated liquid junction potential between intracellular and extracellular solution of 5.8 mV (calculated with Patcher's-Power-Tools plug-in from http://www.mpibpc.gwdg.de/abteilungen/140/software/index.html for Igor Pro 6 [Wavemetrics, Portland, Oreg., USA]) was also compensated. Whole-cell capacitance was determined by using the capacitance compensation (C-slow) of the EPC10. […]

[2] = tested on: zebrafish larvae; assay: High-speed tracking of zebrafish swimming velocity after electric stimulation; type: in vivo; settings: 48 hpf zebrafish, n=30 per treatment
Experimental: To analyse the swimming behaviour of zebrafish morphants, high-speed imaging was performed. In brief 30 zebrafish larvae, all treated with each respective morpholino, were placed in a 10 cm petri dish containing fish embryo medium. To trigger a swimming response, fish were stimulated with an electrical impulse (60 V; delay: 60 ms, duration: 4 ms, frequency: 6 pps (SD9 Stimulator)). Swimming behaviour was recorded with 120 frames per second using a high-speed camera (FC-100, Casio). Quality of the high-speed video was optimized for analysis (Adobe) and afterwards swimming velocity and distance was analysed using LoliTrack software (Loligo Systems).

Substance: smn MO: previously published morpholino knocking down zebrafish smn, CGACATCTTCTGCACCATTGGC (all phosphorodiamidate morpholino (PMO))
- Frequency of large NMDA-induced EPP / action potentials ([1]; 72 hpf zebrafish, ventral fast muscle cells, NMDA (100 μM) stimulation): 0.37±0.17 Hz
- Spontaneous mEPP frequency at rest ([1]; 72 hpf zebrafish, ventral fast muscle cells, without stimulation): 0.32±0.16 Hz
- Resting and NMDA induced EPP activity ([1]; zebrafish morphants compared to wild type): significant reduction of the mEPP and the EPP rate
- Swimming velocity after electrical stimulation [2]: significantly reduced velocity
